In US20250304563A1, “ACTIVATORS OF EFFECTOR T CELLS” (Orum Therapeutics, Inc., priority 2022, published 2025):

How the values were obtained:
Human primary T cells [1] = test: T cell activation: secreted IL-2; assay type: cell-based; conditions: 48 hours, fold over background normalized to Compound 141A; for IL-2 1 nM: 1 nM compound; for IL-2 10 nM: 10 nM compound; for IL-2 100 nM: 100 nM compound
Description: (§1) Human primary T cells were isolated from commercially available frozen peripheral blood mononuclear cells (HemaCare Corporation) or from fresh LeukoPaks (Research Blood Components). T cells were isolated through depletion of non-T cells using negative selection kit according to the manufacturer's protocol (Miltenyi Biotec, Human Pan T Cell Isolation Kit, 130-096-535). Isolated cells were cultured overnight at 37° C. with 5% CO2 and plated at 1×10^5 cells per well in XVivo-15 serum-free media (Lonza, 04-418Q) into 96 well plates coated with anti-CD3 (OKT3) antibody (ThermoFisher, 16-0037-85). To coat the plates for T cell capture, anti-CD3 antibody was diluted in PBS at 10 μg/mL and 100 μl added to each well. Plates were incubated at 4° C. overnight or at 37° C. for 2 hours and washed once with PBS before use. Serial dilutions of each compound were added in duplicates to the T cells to assess their effect on T cell activation. T cells treated with 5 μg/mL of CD28 antibody (ThermoFisher, 16-0289-85) or T cells stimulated by CD3 only were used as a control. Plates were incubated with the Cbl-b inhibitors for 48 hours at 37° C. with 5% CO2, and supernatants were subsequently analyzed for levels of the activation induced secreted cytokines IL-2 or IFN-y (BD Biosciences CBA Flex Beads, 558269, 558270). T cells were additionally stained with anti-CD69 antibody (Invitrogen, 12-0699-42 which labels a T cell activation associated membrane protein to and surface expression was measured by flow cytometry (ThermoFisher Attune NxT).
(§2) To control for natural inter-donor variability in T cell responses intrinsic to using primary human donor derived cells, secreted IL-2 and IFN-y measurements for each test compound were reported as the fold increase of the compound treated levels over background (antiCD3/CD28 treatment only) normalized to the values obtained for Compound 141A. Results for compound treatment-induced changes in CD69 levels are similarly reported as the fold increase due to compound treatment over anti-CD3 stimulated background only, normalized to values obtained for Compound 141A.
Normalized T cell IL-2 responses were sorted into ranges as follows: fold over background values between 1.41 and 1.8: range “X”, between 0.80 and 1.40: range “A”, values between 0.31 and 0.79: range “B” values between 0.10 and 0.30: range “C”, values between 0.01 and 0.09: range “D.”

Human primary T cells [2] = test: T cell activation: secreted IFN-y; assay type: cell-based; conditions: 48 hours, fold over background normalized to Compound 141A; for IFN-y 1 nM: 1 nM compound; for IFN-y 10 nM: 10 nM compound; for IFN-y 100 nM: 100 nM compound
Description: as §1, §2
Normalized T cell IFN-y responses were sorted into ranges as follows: fold over background between 1.10 and 2.00: range “A”, values between 0.31 and 1.00: range “B;” values between 0.10 and 0.30: range “C”, and values between 0.01 and 0.09: range “D.”

Human primary T cells [3] = test: T cell activation: CD69 surface expression by flow cytometry; assay type: cell-based; conditions: fold over anti-CD3 stimulated background normalized to Compound 141A; for CD69 10 nM: 10 nM compound; for CD69 100 nM: 100 nM compound
Description: as §1, §2
Similarly, bins for normalized CD69 levels were sorted into ranges as follows: fold over background values between 1.11 and 1.6: range “X”, values between 0.81 and 1.10: range “A”; values between 0.61 and 0.80: range “B;” values between 0.30 and 0.60: range “C”.

[4] = molecular target: Cbl-b (36-427 aa truncated form, N-terminus Avi-tag) (Homo sapiens (Human), UniProt Q13191); test: Cbl-b binding: TR-FRET displacement of BODIPY-FL probe
Sequence of Cbl-b (36-427 aa truncated form, N-terminus Avi-tag) (Q13191 36-427): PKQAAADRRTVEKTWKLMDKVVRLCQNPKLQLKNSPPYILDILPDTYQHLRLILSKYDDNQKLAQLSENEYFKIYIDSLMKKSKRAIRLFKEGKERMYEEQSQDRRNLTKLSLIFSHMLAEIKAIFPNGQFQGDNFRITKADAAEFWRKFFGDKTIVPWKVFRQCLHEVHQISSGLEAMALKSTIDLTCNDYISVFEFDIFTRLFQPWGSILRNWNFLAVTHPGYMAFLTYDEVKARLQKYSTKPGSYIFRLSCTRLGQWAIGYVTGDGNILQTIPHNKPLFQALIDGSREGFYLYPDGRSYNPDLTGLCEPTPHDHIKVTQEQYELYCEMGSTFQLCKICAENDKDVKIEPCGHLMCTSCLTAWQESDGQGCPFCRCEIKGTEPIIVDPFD
Description: Compounds were assessed for binding activity to Cbl-b by their ability to compete with and displace a probe comprised of BODIPY-FL fluorophore conjugated to a Cbl-b inhibitor (see Example 54 in WO2020264398). In the assay, a 36-427 aa truncated form of Cbl-b with an N-terminus Avi-tag was incubated 20 mM HEPES pH 7.5, 150 mM NaCl, 0.01% Triton X-100, 0.1% BSA, 0.5 mM TCEP buffer with streptavidin-terbium (Cisbio). After one hour of incubation at room temperature, 1 uM each of fluorescent probe and compound were combined with the reaction mixture. Compounds with Cbl-b binding activity competitively displace the fluorophore tagged inhibitor thereby disrupting the FRET signal from the terbium-BODIPY-FL complex. The reaction mixtures were incubated for one additional hour at room temperature to allow for competition between inhibitor and candidate compounds to occur. The time resolved FRET (TR-FRET) signal was then read at 520/620 […] (excitation/emission) using a Spectramax M5e plate reader (Molecular Devices) to measure probe displacement. Compounds with Cbl-b binding activity had decreased FRET signal owing to disruption of the terbium-BODIPY-FL FRET complex. Standard methods in PRISM were used to calculate the compound IC50 values from the experimental data.

Molecule	IL-2 1 nM (Human primary T cells [1])	IL-2 10 nM (Human primary T cells [1])	IL-2 100 nM (Human primary T cells [1])	IFN-y 1 nM (Human primary T cells [2])	IFN-y 10 nM (Human primary T cells [2])	IFN-y 100 nM (Human primary T cells [2])	CD69 10 nM (Human primary T cells [3])	CD69 100 nM (Human primary T cells [3])	IC50 [4] [nM]
C[C@H]1CCCN(Cc2cc3c(c(C(F)(F)F)c2)CN(c2cc(C4(Cc5nncn5C)COC4)cc(OCCO)n2)C3=O)C1 [Compound 100, 2-[6-(2-hydroxyethoxy)-4-{3-[(4-methyl-1,2,4-triazol-3-yl)methyl]oxetan-3-yl}pyridin-2-yl]-6-{[(3S)-3-methylpiperidin-1-yl]methyl}-4-(trifluoromethyl)-3H-isoindol-1-one]	C (values between 0.10 and 0.30: range “C”)	B (values between 0.31 and 0.79: range “B”)	B (values between 0.31 and 0.79: range “B”)	C (values between 0.10 and 0.30: range “C”)	B (values between 0.31 and 1.00: range “B;”)	B (values between 0.31 and 1.00: range “B;”)	C (values between 0.30 and 0.60: range “C”)	A (values between 0.81 and 1.10: range “A”)	
CNCC(=O)Nc1cc(C2(Cc3nncn3C)COC2)cc(N2Cc3c(cc(CN4CCC[C@H](C)C4)cc3C(F)(F)F)C2=O)n1 [Compound 101, N-(4-{3-[(4-methyl-1,2,4-triazol-3-yl)methyl]oxetan-3-yl}-6-(6-{[(3S)-3-methylpiperidin-1-yl]methyl}-1-oxo-4-(trifluoromethyl)-3H-isoindol-2-yl)pyridin-2-yl)-2-(methylamino)acetamide; formic acid]									5.01 to 20
CNCc1cc(C2(Cc3nncn3C)COC2)cc(N2Cc3c(cc(CN4CCC[C@H](C)C4)cc3C(F)(F)F)C2=O)n1 [Compound 104, 2-(4-{3-[(4-methyl-1,2,4-triazol-3-yl)methyl]oxetan-3-yl}-6-[(methylamino)methyl]pyridin-2-yl)-6-{[(3S)-3-methylpiperidin-1-yl]methyl}-4-(trifluoromethyl)-3H-isoindol-1-one; trifluoroacetic acid]									100 to 1000
CSC(C)(C)CNc1cc(C2(Cc3nncn3C)COC2)cc(N2Cc3c(cc(CN4CCC[C@H](C)C4)cc3C(F)(F)F)C2=O)n1 [Compound 105, 2-(4-{3-[(4-methyl-1,2,4-triazol-3-yl)methyl]oxetan-3-yl}-6-{[2-methyl-2-(methylsulfanyl)propyl]amino}pyridin-2-yl)-6-{[(3S)-3-methylpiperidin-1-yl]methyl}-4-(trifluoromethyl)-3H-isoindol-1-one; formic acid]									100 to 1000
C[C@H]1CCCN(Cc2cc3c(c(C(F)(F)F)c2)CN(c2cc(C4(Cc5nncn5C)COC4)cc(NCCS)n2)C3=O)C1 [Compound 108, 2-(4-{3-[(4-methyl-1,2,4-triazol-3-yl)methyl]oxetan-3-yl}-6-[(2-sulfanylethyl)amino]pyridin-2-yl)-6-{[(3S)-3-methylpiperidin-1-yl]methyl}-4-(trifluoromethyl)-3H-isoindol-1-one]									1 to 5
C#CCNc1cc(C2(Cc3nncn3C)COC2)cc(N2Cc3c(cc(CN4CCC[C@H](C)C4)cc3C(F)(F)F)C2=O)n1 [Compound 109, (S)-2-(4-(3-((4-methyl-4H-1,2,4-triazol-3-yl)methyl)oxetan-3-yl)-6-(prop-2-yn-1-ylamino)pyridin-2-yl)-6-((3-methylpiperidin-1-yl)methyl)-4-(trifluoromethyl)isoindolin-1-one]									100 to 1000
CCNc1cc([C@]2(c3nncn3C)C[C@@H](C)C2)nc(N2Cc3c(cc(CN4CCC[C@H](C)C4)cc3C(F)(F)F)C2=O)n1 [Compound 114A, 2-[4-(ethylamino)-6-[(1s,3R)-3-methyl-1-(4-methyl-1,2,4-triazol-3-yl)cyclobutyl]pyrimidin-2-yl]-6-{[(3S)-3-methylpiperidin-1-yl]methyl}-4-(trifluoromethyl)-3H-isoindol-1-one]									100 to 1000
CCOc1cc(C2(Cc3nncn3C)COC2)cc(N2Cc3c(cc(CN4CCC[C@H](C)C4)cc3C(F)(F)F)C2=O)n1 [Compound 146]	B (values between 0.31 and 0.79: range “B”)	B (values between 0.31 and 0.79: range “B”)	A (between 0.80 and 1.40: range “A”)	B (values between 0.31 and 1.00: range “B;”)	A (fold over background between 1.10 and 2.00: range “A”)	A (fold over background between 1.10 and 2.00: range “A”)	A (values between 0.81 and 1.10: range “A”)	A (values between 0.81 and 1.10: range “A”)	
CCNc1cc(C2(Cc3nncn3C)COC2)cc(N2Cc3c(cc(CN4CCC[C@H](C)C4)cc3C(F)(F)F)C2=O)n1 [Compound 147]	B (values between 0.31 and 0.79: range “B”)	B (values between 0.31 and 0.79: range “B”)	A (between 0.80 and 1.40: range “A”)	B (values between 0.31 and 1.00: range “B;”)	A (fold over background between 1.10 and 2.00: range “A”)	A (fold over background between 1.10 and 2.00: range “A”)	A (values between 0.81 and 1.10: range “A”)	A (values between 0.81 and 1.10: range “A”)	
C[C@H]1CCCN(Cc2cc3c(c(C(F)(F)F)c2)CN(c2cccc([C@]4(c5nncn5C)C[C@@H](C)C4)c2)C3=O)C1 [Compound 148]	B (values between 0.31 and 0.79: range “B”)	A (between 0.80 and 1.40: range “A”)	A (between 0.80 and 1.40: range “A”)	B (values between 0.31 and 1.00: range “B;”)	A (fold over background between 1.10 and 2.00: range “A”)	A (fold over background between 1.10 and 2.00: range “A”)	A (values between 0.81 and 1.10: range “A”)	A (values between 0.81 and 1.10: range “A”)	
(3S)-1-[6-(2,5-dioxopyrrol-1-yl)hexyl]-1-({2-[6-(ethylsulfanyl)-4-{3-[(4-methyl-1,2,4-triazol-3-yl)methyl]oxetan-3-yl}pyridin-2-yl]-3-oxo-7-(trifluoromethyl)-1H-isoindol-5-yl}methyl)-3-methylpiperidin-1-ium [Compound 209]	C (values between 0.10 and 0.30: range “C”)	C (values between 0.10 and 0.30: range “C”)	B (values between 0.31 and 0.79: range “B”)	C (values between 0.10 and 0.30: range “C”)	C (values between 0.10 and 0.30: range “C”)	B (values between 0.31 and 1.00: range “B;”)	C (values between 0.30 and 0.60: range “C”)	B (values between 0.61 and 0.80: range “B;”)	
